Results from US20210238173A1, “MITOGEN-ACTIVATED PROTEIN KINASE KINASE 7 INHIBITORS” (Yeda Research and Development Co. Ltd., priority 2018, published 2021).
“And” between values parts separate entries of the source, which are not always exact repeats. Equal values may be shown once.

Legend:
MKK4 = target: T1, MKK4 (Homo sapiens, UniProt P45985); test: In vitro activity assay for MKK4 (Nanosyn); assay type: biochemical
T1 construct: purchased Nanosyn (contract assay)
T1 sequence (P45985 1-399): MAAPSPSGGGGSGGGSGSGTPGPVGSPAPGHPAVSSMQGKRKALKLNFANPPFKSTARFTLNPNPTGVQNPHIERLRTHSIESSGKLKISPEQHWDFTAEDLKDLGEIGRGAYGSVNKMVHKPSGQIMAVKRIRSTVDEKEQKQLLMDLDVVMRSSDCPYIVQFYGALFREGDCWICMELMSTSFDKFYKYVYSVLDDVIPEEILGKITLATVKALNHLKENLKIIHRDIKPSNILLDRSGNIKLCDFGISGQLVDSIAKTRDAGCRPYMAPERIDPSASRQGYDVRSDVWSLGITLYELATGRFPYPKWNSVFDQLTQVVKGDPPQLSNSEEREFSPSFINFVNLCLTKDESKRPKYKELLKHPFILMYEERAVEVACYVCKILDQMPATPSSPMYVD
Protocol: In Vitro Activity Assays for MKK7 or MKK4 (Carried by Nanosyn):
Exemplary test compounds, according to some embodiments of the present invention, were diluted in DMSO to a final concentration that ranged from 10 μM to 0.0565 nM, while final concentration of DMSO in all assays was kept at 1%. Reference compound, Staurosporine, was tested in a similar manner. […] After incubation, activity of now activated JNK1 was tested in the presence of 30 μM ATP ATP for 17 h (MKK7) or 4 h (MKK4).

pJNK in HEK293 cells = test: In-cell western (ICW) pJNK inhibition in HEK293; assay type: cell-based; settings: 2 h pre-incubation, sorbitol stimulation
Protocol: (§1) HEK293, Beas2B and 3T3 cells were plated 24 hours before procedure on 384 well clear bottom black flat plates (Corning) pre-coated with Fibronectin (Sigma) diluted in PBS to a concentration of 5 μg/ml 45 minutes prior to cells introduction. Cells were plated using Multidrop™ Combi reagent dispenser (Thermo Fisher Scientific). Compound, reagents and antibody dispensing as well as washes were performed with a CyBio liquid handler (Analytik). Cells were pre-incubated with a small molecule or up to 1% DMSO for 2 h before fixation. HEK293, 3T3 or Beas2B cells were treated with 0.6M/0.2M/0.2M D-Sorbitol/PBS (Sigma) for 20/40/40 min. respectively, before fixation. Media was removed and wells were immediately fixed with 150 μl per well of 3.7% formaldehyde/PBS fixing solution for 20 min. Formaldehyde was then aspired and cells were permeabilized with 150 μl of 0.5% Triton x-100/PBS solution for 10 min. After aspiration cells were washed with ice-cold methanol and stored at −20° C., for 10 min. Methanol was aspired and cells were blocked with 150 μl blocking buffer (LICOR) for 90 min. Primary antibody Phospho-SAPK/JNK T183/Y185 (CST; 9251S) was diluted 1:1000 in blocking buffer and was applied 50 μl per well, except control wells to which only blocking buffer was applied, O.N. (16 h) at 4° C. with mild shaking. Primary antibody was aspired, wells were washed with 150 μl 0.1% Tween20/PBS (Sigma) washing solution three times for 7 min. IRDye® 800CW Goat anti-Rabbit IgG Secondary antibody (LICOR) was then diluted 1:1200 in blocking buffer with 50 μl applied per well on control wells only (no CellTag control), then CellTag700 (1:2000) was added to the solution and 50 μl were added to all experiment wells, for 1 h at room temperature. Wells were aspired and washed again with 150 μl 0.1% Tween20/PBS (Sigma) washing solution three times for 7 min. plate was dried and scanned with Odyssey CLx imaging system at 700 nm and 800 nm (Licor). Wells signals were analyzed with Odyssey software. The signal was normalized by the CellTag700 signal.
(§2) To rapidly assess the cellular activity (EC50) with full dose response curves of the MKK7 covalent inhibitors, according to some embodiments of the present invention, an in-cell western assay was adapted to a 384 well plate format over traditional western blot, and monitored phospho-JNK (pJNK) levels in response to osmotic shock. We first characterized the dynamics of pJNK in response to sorbitol. Sufficient dynamic range for pJNK is achieved at 20 minutes in HEK293 cells and at 40 minutes in 3T3 and Beas2B cells. The compound's activity was assessed by pre-treating cells with either compound or DMSO for 2 hours, followed by Sorbitol stimulation. The response of pJNK, and its substrates, pc-Jun and pATF2, was measured, as well as pP38, which is a substrate of MKK4 but not MKK7, and pERK in HEK293 cells, and the results are presented in Table 5 below.

pJNK in 3T3 WT cells = test: In-cell western (ICW) pJNK inhibition in 3T3 WT; assay type: cell-based; settings: 3T3 WT, sorbitol stimulation
Protocol: as §1, §2
Wildtype 3T3 cells, 3T3 MKK7 double knock-out (MKK7^−/−) cells and MKK4/7 double knockouts (MKK4/7^−/−) were used to validate on target activity of the MKK7 covalent inhibitors presented herein.

[1] = Metabolic stability in mouse liver microsomes; assay type: in vitro ADME; settings: for half-life: mouse, liver microsomes
Text: (§3) A reference compound, REF1250, was used in this study: […]

[2] = Metabolic stability in dog liver microsomes; assay type: in vitro ADME; settings: for half-life: dog, liver microsomes
Text: as §3

[3] = Metabolic stability in monkey liver microsomes; assay type: in vitro ADME
Text: as §3

[4] = Metabolic stability in human liver microsomes; assay type: in vitro ADME; settings: for half-life: human, liver microsomes
Text: as §3

SMILES | IC50 (MKK4) | EC50 (pJNK in HEK293 cells; HEK293, ICW) | EC50 (pJNK in 3T3 WT cells; ICW, 2 h pre-incubation) | IC50 (pJNK in 3T3 WT cells) | % remaining @ 40 min [1] | half-life [1] | % remaining @ 40 min [2] | half-life [2] | % remaining @ 40 min [3] | half-life [3] | % remaining @ 40 min [4] | half-life [4] | EC50 (pJNK in HEK293 cells; Homo sapiens, HEK293, HEK293, ICW)
C=CC(=O)Nc1cccc(-c2n[nH]c3c2CCCC3)c1 [GO4] | 4.13 µM | 5.2 µM | > 10 µM | 18.2 µM | 0% | < 5 min | 0% | < 5 min | 0% | < 5 min | 0% | < 5 min | –
C=CC(=O)Nc1cccc(-c2n[nH]c3ccccc23)c1 [GO32] | 4.15 µM | 2.06 µM | – | 5.15 µM | 0% | < 5 min | 0% | < 5 min | 0% | < 5 min | 0% | < 5 min | –
C=CC(=O)Nc1cccc(-c2n[nH]c3cc(C)ccc23)c1 [GO80] | 7.81 µM | 1.3 µM and 0.8 µM | – | 4.05 µM | 0% | < 5 min | 0% | < 5 min | 0% | < 5 min | 0% | < 5 min | 1.26 µM
